Holding throughout (assay): SelectScreen Kinase Profiling, single point inhibition and IC50 for off-target kinases
Assay type in all cases: biochemical

In test [1] the target is off-target kinases (Homo sapiens, UniProt P12931). To be noted: SRC, ATP Km app, ZLYTE.
The target of test [2] is off-target kinases (Homo sapiens, UniProt P16234, D842V). To be noted: PDGFRA D842V, ATP Km app, ZLYTE.
Test [3] concerns the target T1, off-target kinases (Homo sapiens, UniProt P46734).
T1 sequence (P46734 1-347): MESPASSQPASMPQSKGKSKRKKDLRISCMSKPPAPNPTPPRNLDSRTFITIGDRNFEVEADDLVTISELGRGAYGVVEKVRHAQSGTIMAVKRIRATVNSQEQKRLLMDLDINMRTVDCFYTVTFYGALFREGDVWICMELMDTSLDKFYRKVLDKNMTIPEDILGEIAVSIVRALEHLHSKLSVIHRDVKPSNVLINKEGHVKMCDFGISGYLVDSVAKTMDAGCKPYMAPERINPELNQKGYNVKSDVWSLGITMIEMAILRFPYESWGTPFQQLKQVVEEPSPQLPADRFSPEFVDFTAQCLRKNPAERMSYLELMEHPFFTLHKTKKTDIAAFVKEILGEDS
As to conditions: MAP2K3 (MEK3), LanthaScreen Binding.

Test [4] deals with T2, off-target kinases (Homo sapiens, UniProt P51817).
T2 sequence (P51817 1-358): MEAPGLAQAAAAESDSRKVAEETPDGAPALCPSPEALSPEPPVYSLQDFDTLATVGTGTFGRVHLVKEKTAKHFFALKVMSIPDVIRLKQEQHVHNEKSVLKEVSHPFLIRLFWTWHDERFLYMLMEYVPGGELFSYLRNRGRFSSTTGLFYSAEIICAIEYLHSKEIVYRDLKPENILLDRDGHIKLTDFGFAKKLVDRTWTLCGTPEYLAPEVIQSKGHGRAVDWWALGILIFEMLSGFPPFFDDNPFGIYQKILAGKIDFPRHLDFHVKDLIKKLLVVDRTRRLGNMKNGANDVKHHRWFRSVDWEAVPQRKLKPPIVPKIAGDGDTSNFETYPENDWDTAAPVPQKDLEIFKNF
As to conditions: PRKX, ZLYTE, ATP Km app.

For test [5], the target named is off-target kinases (Homo sapiens, UniProt Q16288). As to conditions: NTRK3 (TRKC), ZLYTE, ATP Km app.
Test [6] concerns the target T3, off-target kinases (Homo sapiens, UniProt Q9H093).
T3 sequence (Q9H093 1-628): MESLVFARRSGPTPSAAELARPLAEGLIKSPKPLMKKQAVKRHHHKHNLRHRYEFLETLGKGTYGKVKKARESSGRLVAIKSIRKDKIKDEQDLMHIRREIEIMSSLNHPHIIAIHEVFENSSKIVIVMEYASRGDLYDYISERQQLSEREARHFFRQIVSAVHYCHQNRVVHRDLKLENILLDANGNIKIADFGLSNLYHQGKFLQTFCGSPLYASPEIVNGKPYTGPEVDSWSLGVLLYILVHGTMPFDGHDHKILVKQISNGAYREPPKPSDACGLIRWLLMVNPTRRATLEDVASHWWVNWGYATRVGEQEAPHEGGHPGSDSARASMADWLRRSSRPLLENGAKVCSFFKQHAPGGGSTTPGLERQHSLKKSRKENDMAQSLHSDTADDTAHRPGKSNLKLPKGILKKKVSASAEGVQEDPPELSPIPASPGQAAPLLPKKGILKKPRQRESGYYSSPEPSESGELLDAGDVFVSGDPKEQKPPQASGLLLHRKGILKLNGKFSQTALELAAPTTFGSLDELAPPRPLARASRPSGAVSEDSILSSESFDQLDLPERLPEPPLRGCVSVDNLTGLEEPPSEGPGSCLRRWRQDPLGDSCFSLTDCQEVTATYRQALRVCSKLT
To be noted: NUAK2, LanthaScreen Binding.

Where two headings read alike, the source gives them in different places.

off-target kinases (Homo sapiens, UniProt P12931), sequence (P12931 whole entry): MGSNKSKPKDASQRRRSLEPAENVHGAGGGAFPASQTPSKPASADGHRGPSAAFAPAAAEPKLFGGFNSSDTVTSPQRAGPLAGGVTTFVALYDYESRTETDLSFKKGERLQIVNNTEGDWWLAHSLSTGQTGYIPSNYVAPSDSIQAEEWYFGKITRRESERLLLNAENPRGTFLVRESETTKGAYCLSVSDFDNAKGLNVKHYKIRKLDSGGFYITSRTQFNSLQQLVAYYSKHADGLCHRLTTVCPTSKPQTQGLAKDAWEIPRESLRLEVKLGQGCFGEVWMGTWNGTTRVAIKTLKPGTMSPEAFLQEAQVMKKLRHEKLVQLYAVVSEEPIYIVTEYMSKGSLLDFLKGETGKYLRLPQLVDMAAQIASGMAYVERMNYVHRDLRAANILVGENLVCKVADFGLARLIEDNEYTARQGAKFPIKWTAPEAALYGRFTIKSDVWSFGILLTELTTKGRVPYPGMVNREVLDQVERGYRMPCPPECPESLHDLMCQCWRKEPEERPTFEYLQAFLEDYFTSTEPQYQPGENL
off-target kinases (Homo sapiens, UniProt P16234, D842V), sequence (P16234 24-1089 D842V): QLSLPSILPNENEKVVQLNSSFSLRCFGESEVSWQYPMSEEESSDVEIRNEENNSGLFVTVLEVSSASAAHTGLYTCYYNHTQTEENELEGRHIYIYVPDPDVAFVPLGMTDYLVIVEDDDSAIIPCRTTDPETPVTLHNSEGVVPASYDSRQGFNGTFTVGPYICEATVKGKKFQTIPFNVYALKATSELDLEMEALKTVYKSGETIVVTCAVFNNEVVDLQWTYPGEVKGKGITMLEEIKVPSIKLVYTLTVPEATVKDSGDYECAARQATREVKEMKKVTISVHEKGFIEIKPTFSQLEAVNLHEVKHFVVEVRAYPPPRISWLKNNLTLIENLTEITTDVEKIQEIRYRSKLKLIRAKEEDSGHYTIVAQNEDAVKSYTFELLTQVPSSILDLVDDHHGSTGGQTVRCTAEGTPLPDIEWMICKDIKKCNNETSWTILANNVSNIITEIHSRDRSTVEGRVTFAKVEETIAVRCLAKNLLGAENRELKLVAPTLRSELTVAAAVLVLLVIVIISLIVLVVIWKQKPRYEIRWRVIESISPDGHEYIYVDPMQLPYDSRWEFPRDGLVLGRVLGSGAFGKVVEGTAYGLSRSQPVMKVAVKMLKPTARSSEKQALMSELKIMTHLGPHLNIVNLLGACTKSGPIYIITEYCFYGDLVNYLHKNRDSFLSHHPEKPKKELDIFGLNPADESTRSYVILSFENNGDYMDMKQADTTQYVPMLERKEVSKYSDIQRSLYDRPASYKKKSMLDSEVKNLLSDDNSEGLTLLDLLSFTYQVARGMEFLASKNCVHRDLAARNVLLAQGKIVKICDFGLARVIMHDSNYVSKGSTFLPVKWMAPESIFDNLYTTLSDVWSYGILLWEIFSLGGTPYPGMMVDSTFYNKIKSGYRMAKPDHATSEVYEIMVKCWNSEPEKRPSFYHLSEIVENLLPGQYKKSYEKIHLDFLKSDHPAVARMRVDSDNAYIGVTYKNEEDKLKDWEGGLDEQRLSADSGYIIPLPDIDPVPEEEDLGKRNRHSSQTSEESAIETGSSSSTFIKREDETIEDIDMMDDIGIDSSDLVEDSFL
off-target kinases (Homo sapiens, UniProt Q16288), sequence (Q16288 32-839): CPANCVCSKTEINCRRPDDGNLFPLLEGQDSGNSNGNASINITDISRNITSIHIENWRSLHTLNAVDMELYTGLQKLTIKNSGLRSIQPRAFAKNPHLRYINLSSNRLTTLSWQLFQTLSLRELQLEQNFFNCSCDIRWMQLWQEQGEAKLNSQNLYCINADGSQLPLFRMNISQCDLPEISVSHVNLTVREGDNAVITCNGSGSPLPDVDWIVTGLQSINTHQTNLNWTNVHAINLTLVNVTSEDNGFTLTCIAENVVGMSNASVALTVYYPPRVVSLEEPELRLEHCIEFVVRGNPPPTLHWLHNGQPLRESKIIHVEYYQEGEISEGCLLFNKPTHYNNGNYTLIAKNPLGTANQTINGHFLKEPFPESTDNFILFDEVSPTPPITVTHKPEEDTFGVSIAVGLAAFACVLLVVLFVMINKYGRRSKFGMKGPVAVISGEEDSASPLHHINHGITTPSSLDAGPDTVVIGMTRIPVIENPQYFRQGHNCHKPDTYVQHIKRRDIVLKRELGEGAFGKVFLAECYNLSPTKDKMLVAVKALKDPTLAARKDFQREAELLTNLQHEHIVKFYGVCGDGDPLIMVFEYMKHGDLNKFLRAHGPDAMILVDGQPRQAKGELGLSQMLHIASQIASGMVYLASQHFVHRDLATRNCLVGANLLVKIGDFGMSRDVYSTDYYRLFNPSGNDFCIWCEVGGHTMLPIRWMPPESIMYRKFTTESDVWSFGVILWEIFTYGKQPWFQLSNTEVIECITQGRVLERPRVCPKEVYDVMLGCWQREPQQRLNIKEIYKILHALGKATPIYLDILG

For `N#Cc1cc(-c2ncnc(Nc3ccc(N4CCN(C5COC5)CC4)cc3)n2)ccc1OC1CCOCC1` [Compound 1, 5-(4-((4-(4-(oxetan-3-yl)piperazin-1-yl)phenyl)amino)-1,3,5-triazin-2-yl)-2-((tetrahydro-2H-pyran-4-yl)oxy)benzonitrile], the inhibition on off-target kinases [1] (read-out: % Inhibition 1) was 45%; at off-target kinases [1] (read-out: % Inhibition 2), 44%; at off-target kinases [1] (read-out: % Inhibition Avg) it was 45%; on off-target kinases [2] (read-out: % Inhibition 1), 77%; at off-target kinases [2] (read-out: % Inhibition 2) it was 73%; at off-target kinases [2] (read-out: % Inhibition Avg), 75%. Moreover, the inhibition at off-target kinases [3] (read-out: % Inhibition 1) is 5%; on off-target kinases [3] (read-out: % Inhibition 2) it was 8%; on off-target kinases [3] (read-out: % Inhibition Avg), 7%; on off-target kinases [4] (read-out: % Inhibition 1) it was 22%; at off-target kinases [4] (read-out: % Inhibition 2), 30%; at off-target kinases [4] (read-out: % Inhibition Avg), 26%. Moreover, the inhibition at off-target kinases [5] (read-out: % Inhibition 1) was determined as 17%; on off-target kinases [5] (read-out: % Inhibition 2) it was 19%; on off-target kinases [5] (read-out: % Inhibition Avg), 18%; on off-target kinases [6] (read-out: % Inhibition 1), 54%; on off-target kinases [6] (read-out: % Inhibition 2), 52%; on off-target kinases [6] (read-out: % Inhibition Avg), 53%.

Values taken from US11572590B2, “Methods for evaluating tumor cell spheroids using 3D microfluidic cell culture device” (Dana-Farber Cancer Institute, Inc., priority 2017, dated 2023).
